Assay results reported in patent publication US12377086B2, “Therapeutic methods, combinations and kits” (priority 2021, dated 2025).
Where two headings read alike, the source gives them in different places.

Experiments:
Test in all cases: biochemical
NDM-1 = NDM-1 (Klebsiella pneumoniae, UniProt C7C422)
Experimental: BL21 (DE3) E. coli cells containing the pET26b-ndm-1 plasmid were used to inoculate a 50 mL LB starter culture containing kanamycin (25 μg/mL). The culture was grown overnight at 37° C. The starter culture was then used to inoculate 4×1 L LB containing kanamycin (25 μg/mL). These flasks were incubated at 37° C. until culture reached an optical density of (OD600) of 0.6 to 0.8. The incubator was then set to 22° C. and the cultures were shaken for 30 min to allow them to cool. ZnCl2 ([…]) and IPTG (0.5 mM) were then added to the cultures and they were grown for 18 h at 22° C. The cells were then harvested using centrifugation (8000×g) for 10 min. The pellet was resuspended with 25 mL 50 mM HEPES, pH 7.5 containing 500 mM NaCl (Buffer B). Lysis was performed with three passes through a French Press. The lysate was centrifuged for 30 min (15,000×g) at 4° C. The supernatant was then dialyzed versus 2 L 50 mM HEPES, pH 7.5 (Buffer C) for 4 h. An FPLC was used to equilibrate a Q-Sepharose column using buffer C using a flowrate of 2.0 mL/min for 1.5 h. The lysate was then loaded onto the column and eluted with a linear NaCl gradient from 0-500 mM. Fractions containing NDM-1 were identified with SDS-PAGE. These fractions were pooled and concentrated to 2-3 mL in an Amicon ultracentrifugation concentrating unit with a YM-10 membrane. The resulting protein mixture was then loaded onto a Sephacryl S-200 gel filtration column run with 50 mM HEPES, pH 7.5 containing 150 mM NaCl (Buffer A). SDS-PAGE was used to identify fractions containing pure protein.
(§1) To identify potential MBL inhibitors, the relative change in the formation of hydrolyzed nitrocefin between treated and untreated MBL was determined as percentage inhibition. 5 nM of each BML was pre-incubated for 10 mins with 50 μM of each compound, followed by the addition of 10 μM nitrocefin.
(§2) Each MBL was incubated with 50 μM of each compound, followed by the addition of nitrocefin. The relative change in absorbance is reported as percentage inhibition.

VIM-2 [1] = molecular target: T1, VIM-2 (Pseudomonas aeruginosa, UniProt Q5U7L7)
Experimental: (§3) The pET24a-VIM-2 plasmid was transformed into competent BL21 (DE3) E. coli cells. The cells were plated onto an LB-agar plate with kanamycin (25 μg/mL) and incubated overnight at 37° C. A single colony was used to inoculate 50 mL of LB, containing 25 μg/mL kanamycin, and the culture was shaken overnight at 37° C. From the overnight culture, 10 mL were transferred to 4×IL LB medium containing 25 μg/mL kanamycin. The cultures were grown at 37° C. until an optical density (OD600 nm) of 0.6-0.8 was reached, at which point protein production was induced with IPTG (0.5 mM) and ZnCl2 (100 μM). The temperature was reduced to 20° C., and the cells were shaken for an additional 18 h. The cultures were harvested by centrifugation (8 Kxg) for 10 min at 4° C. The resulting pellets were re-suspended in 25 mL of 50 mM HEPES, pH 7.5, containing 500 mM NaCl (buffer B). The cells were lysed with three passes through a French Press. The lysate was centrifuged (15 Kxg) for 30 min at 4° C. The supernatant was dialyzed against 2 L of 50 mM HEPES, pH 7.5 (buffer A), for 4 h. Buffer A was used to equilibrate a 25 mL Q-Sepharose column using an FPLC. The sample was loaded onto the column, and proteins were eluted with a linear gradient 0-500 mM NaCl with buffer B. Fractions containing VIM-2, determined by SDS-PAGE, were pooled and concentrated to 2-3 mL in an Amicon ultraconcentrator equipped YM-10 membrane. Further purification was conducted with a Sephacryl S-200 gel filtration column using 50 mM HEPES, pH 7.5, containing 150 mM NaCl. Fractions containing pure VIM-2 were pooled, and metal analysis was performed.
as §1, §2

VIM-2 [2] = molecular target: T1, VIM-2; remark: listed apart in the source
Experimental: as §3, with “Further purification was conducted with a Sephacryl S-200 gel filtration column using 50 mM HEPES, pH 7.5, containing 150 mM NaCl.” left out
The enzyme inhibition constant (Ki) was derived from initial-velocity measurements by nonlinear regression using competitive-inhibition enzyme kinetics using Graphpad Prism 6.

[3] = 50 μM compound, 5 nM MBL, 10 μM nitrocefin, 30 mins, read-out: NDM-1 percentage inhibition
[4] = 50 μM compound, 5 nM MBL, 10 μM nitrocefin, 30 mins, read-out: VIM-2 percentage inhibition
[5] = read-out: NDM-1 percentage inhibition, 50 μM compound, 5 nM MBL, 10 μM nitrocefin, 30 mins
[6] = read-out: VIM-2 percentage inhibition
[7] = 50 μM compound, 5 nM MBL, 10 μM nitrocefin, 30 mins
[8] = 5 nM MBL, 10 μM nitrocefin, read-out: VIM-2 IC50
[9] = nitrocefin substrate, competitive-inhibition fit, read-out: VIM-2 Ki

Chain of NDM-1 (C7C422 whole entry, looked up, species assumed): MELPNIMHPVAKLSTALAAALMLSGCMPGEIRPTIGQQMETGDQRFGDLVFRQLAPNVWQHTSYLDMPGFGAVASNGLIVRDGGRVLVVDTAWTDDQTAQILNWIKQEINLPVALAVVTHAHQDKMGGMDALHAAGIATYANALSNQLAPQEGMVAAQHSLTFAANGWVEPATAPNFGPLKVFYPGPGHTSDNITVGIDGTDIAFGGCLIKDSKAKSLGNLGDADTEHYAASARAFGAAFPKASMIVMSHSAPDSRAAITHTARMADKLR

Row | inhibition at 50 µM (NDM-1; [3]) [%] | inhibition at 50 µM (VIM-2 [1]; [4]) [%] | SMILES | VIM-2 percentage inhibition (VIM-2 [1]; [7]) [%] | further results
1 | 55 | 16 | CCOC(=O)CS [Compound 2] | – | –
2 | 50 | 17 | CC(S)C(=O)O (centres unmarked) [Compound 3] | – | –
3 | – | – | O=C(O)CC(S)C(=O)O (centres unmarked) [Compound 4] | – | inhibition at 50 µM (NDM-1; [5]): 39%; inhibition at 50 µM (VIM-2 [1]; [6]): 22%
4 | – | – | Oc1ccnc(S)n1 [Compound 6] | – | inhibition at 50 µM (NDM-1; [5]): 48%; inhibition at 50 µM (VIM-2 [1]; [6]): 13%
5 | 44 | 9 | Nc1nc(S)ncc1C(=O)O [Compound 7] | – | –
6 | 63 | 18 | Cc1nc(S)nc(O)c1CC(=O)O [Compound 8] | – | –
7 | 43 | 29 | Sc1nccc(-c2ccccn2)n1 [Compound 9] | – | –
8 | 8 | 21 | Sc1nccc(-c2cccs2)n1 [Compound 10] | – | –
9 | 50 | 20 | Cc1cc(C(=O)O)nc2[nH]c(=S)[nH]c(=O)c12 [Compound 11] | – | –
10 | 18 | 22 | CC(=O)c1ccc(O)c(O)c1O [Compound 12] | – | –
11 | 51 | 4 | O=C(O)c1c(O)cccc1O [Compound 14] | – | –
12 | – | 18 | O=C(CCCCCCC(=O)Nc1ccccc1)NO [Compound 15, SAHA, reference compound] | – | –
13 | 49 | 8 | O=C(NO)c1n[nH]c(Cl)n1 [Compound 16] | – | –
14 | 30 | 18 | O=C1c2ccccc2C(=O)N1O [Compound 18] | – | –
15 | 46 | 22 | Cc1nc2ccccc2c(=O)n1O [Compound 19] | – | –
16 | – | 16 | Cc1cc(C)n(-c2nc3ccccc3c(=O)n2O)n1 [Compound 20] | – | –
17 | – | 27 | O=c1c2ccccc2[nH]c(=S)n1O [Compound 21] | – | –
18 | 12 | 9 | O=c1c(-c2ccco2)[n+]([O-])c2ccccc2n1O [Compound 22] | – | –
19 | 51 | 25 | O=c1c(-c2cccs2)[n+]([O-])c2ccccc2n1O [Compound 23] | – | –
20 | – | – | O=C(O)c1cccc(C(=O)O)n1 [Compound 24] | – | inhibition at 50 µM (NDM-1; [5]): > 50%; inhibition at 50 µM (VIM-2 [1]; [6]): 15%
21 | – | – | O=C(O)c1cc(O)cc(C(=O)O)n1 [Compound 25] | – | inhibition at 50 µM (VIM-2 [1]; [6]): 27%

Row | inhibition at 50 µM (NDM-1; [3]) [%] | inhibition at 50 µM (VIM-2 [1]; [4]) [%] | SMILES | VIM-2 percentage inhibition (VIM-2 [1]; [7]) [%] | further results
22 | 58 | 5 | CC(C)Cc1cc(C(=O)O)nc(O)n1 [Compound 26] | – | –
23 | 54 | 17 | Cc1cc(C(=O)O)nc(O)n1 [Compound 27] | – | –
24 | 53 | 25 | Cc1ccc(O)c(CO)n1 [Compound 28] | – | –
25 | – | 18 | CC(C)c1cc(C(=O)O)nc2[nH][nH]c(=O)c12 [Compound 29] | – | –
26 | 66 | 21 | Cc1cc(C(=O)O)nc2[nH][nH]c(=O)c12 [Compound 30] | – | –
27 | – | – | Oc1ccc2ccccc2n1 [Compound 32] | 9 | NDM-1 percentage inhibition (NDM-1; [7]): 0%
28 | – | – | Oc1cnc2ccccc2c1 [Compound 33, 3-hydroxyquinoline] | – | inhibition at 50 µM (NDM-1; [5]): 33%; inhibition at 50 µM (VIM-2 [1]; read-out: VIM-2 percentage inhibition, 50 μM compound, 5 nM MBL, 10 μM nitrocefin, 30 mins): 95%
29 | – | – | Oc1ccnc2ccccc12 [Compound 34] | 9 | NDM-1 percentage inhibition (NDM-1; [7]): 1%
30 | – | – | Oc1cccc2ncccc12 [Compound 35] | 6 | NDM-1 percentage inhibition (NDM-1; [7]): 6%
31 | – | – | Oc1ccc2ncccc2c1 [Compound 36] | 7 | NDM-1 percentage inhibition (NDM-1; [7]): 1%
32 | – | – | Oc1ccc2cccnc2c1 [Compound 37] | 3 | NDM-1 percentage inhibition (NDM-1; [7]): 8%
33 | – | – | Nc1cccc2cccnc12 [Compound 38] | 43 | NDM-1 percentage inhibition (NDM-1; [7]): 3%
34 | – | – | [O-][n+]1cccc2cccc(O)c21 [Compound 39] | 27 | NDM-1 percentage inhibition (NDM-1; [7]): 7%
35 | – | – | Cc1ccc2cccc(O)c2n1 [Compound 40] | 77 | NDM-1 percentage inhibition (NDM-1; [7]): 9%
36 | – | – | Nc1ccc(O)c2ncccc12 [Compound 42] | 96 | IC50 (VIM-2 [2]; [8]): 3.8 µM; Ki (VIM-2 [2]; [9]): 0.88 µM
37 | – | – | O=C(O)c1cnc2c(O)cccc2c1 [Compound 43] | 91 | IC50 (VIM-2 [2]; [8]): 1.6 µM; Ki (VIM-2 [2]; [9]): 0.53 µM
38 | – | – | O=C(O)c1ccnc2c(O)cccc12 [Compound 44] | 92 | –
39 | – | – | Oc1ccc(Cl)c2cccnc12 [Compound 46] | 98 | IC50 (VIM-2 [2]; [8]): 4.1 µM; Ki (VIM-2 [2]; [9]): 0.96 µM
40 | – | – | Oc1c(Cl)cc(Cl)c2cccnc12 [Compound 47] | 96 | IC50 (VIM-2 [2]; [8]): 4.1 µM; Ki (VIM-2 [2]; [9]): 1.1 µM
41 | – | – | Oc1c(Br)cc(Br)c2cccnc12 [Compound 49] | 92 | –
42 | – | – | Cc1ccc2c(Cl)cc(Cl)c(O)c2n1 [Compound 50] | 95 | IC50 (VIM-2 [2]; [8]): 4.8 µM; Ki (VIM-2 [2]; [9]): 0.96 µM

Row | SMILES | inhibition at 50 µM (NDM-1; [3]) [%] | inhibition at 50 µM (VIM-2 [1]; [4]) [%] | VIM-2 percentage inhibition (VIM-2 [1]; [7]) [%] | further results
43 | O=C(O)/C(S)=C\c1cccnc1 [Compound 5] | 40 | 40 | – | NDM-1 percentage inhibition (NDM-1; [7]): 39%; IC50 (VIM-2 [2]): 24 µM; Ki (VIM-2 [2]): 4.5 µM
44 | O=C(c1ccc(O)cc1)c1ccc(O)c(O)c1O [Compound 13] | 40 | 40 | 48 | NDM-1 percentage inhibition (NDM-1; [7]): 36%; IC50 (VIM-2 [2]): 81 µM; Ki (VIM-2 [2]): 8.8 µM
45 | O=C1[C@@H](c2ccccc2)SCN1O [Compound 17] | 40 | 40 | 33 | IC50 (VIM-2 [2]): 41 µM; Ki (VIM-2 [2]): 5.3 µM
